# Results reported in paper PMC12735778, “Purification and Biochemical Characterization of Polyphenol Oxidase from Falcaria vulgaris Bernh” (Molecules, 2025).
# Marks after values point to notes of the source that are not given here.
# Tests used:
# Medlar PPO = system: Medlar PPO; set-up: method as in doi:10.1016/S0308-8146(01)00359-4; settings: substance as substrate, ref [51], cited from earlier work; for Vmax: asterisked values
# [1] = system: PPO from persimmon fruits; set-up: method as in doi:10.1016/j.foodchem.2003.07.022; settings: substance as substrate, ref [47], cited from earlier work; for Vmax: asterisked values
# [2] = system: polyphenol oxidase (PPO) from sickleweed; test: Substrate kinetics of sickleweed PPO (Lineweaver-Burk); format: biochemical, Falcaria vulgaris Bernh.; settings: substance as substrate; optimum pH and temperature
# Method: (§1) PPO activity was determined by measuring the increase in absorbance at 496 nm for 4-methylcatechol and 500 nm for catechol and DHPPA with a UV–Vis spectrophotometer. PPO activity was detected by the increment in absorbance in 1 min by adding 100 μL of the substrate (100 mM), 100 μL of 3-Methyl-2-benzothiazolinone hydrazone (MBTH, 10 mM), 20 μL of Dimethylformamide (DMF), 680 μL of 50 mM pH 5.0 acetate buffer, and finally 100 μL of the enzyme. The blank contains all solutions, excluding the enzyme. The enzyme unit is defined as the amount of the enzyme producing an absorbance increase of 0.001 per minute in 1 mL of the reaction mixture. The specific activity of PPO was defined as units per mg of protein [64].
# To determine substrate specificity, catechol (0.2–20 mM), 4-methylcatechol (0.2–20 mM), and DHPPA (0.2–20 mM) concentrations were studied. Enzyme activity was carried out at optimum temperature and pH. The kinetic data were analyzed in terms of 1/activity (1/V) and 1/substrate concentration ([S]). The Michaelis-Menten constant (Km) and the maximum velocity (Vmax) were computed by plotting the Lineweaver-Burk graph. The catalytic efficiency ratio (Vmax/Km) was used as a criterion to evaluate substrate specificity.
# PPO from butter lettuce = system: PPO from butter lettuce; set-up: method as in doi:10.1016/j.foodchem.2007.07.068; settings: substance as substrate; ref [38]; cited from earlier work
# PPO from Sarali plum [3] = system: PPO from Sarali plum; set-up: method as in doi:10.1007/s11694-024-02663-y; settings: substance as substrate; ref [39]; cited from earlier work
# PPO from Chinese parsley = system: PPO from Chinese parsley; set-up: method as in PMID 30263491; settings: substance as substrate; ref [50]; cited from earlier work
# [4] = system: PPO from Laccaria laccata (LacPPO); set-up: method as in doi:10.1111/jfbc.12605; settings: substance as substrate; ref [43]; cited from earlier work
# PPO from tea leaf = system: PPO from tea leaf; set-up: method as in doi:10.1007/s11694-019-00264-8; settings: substrate catechol; ref [40]; cited from earlier work
# [5] = system: polyphenol oxidase (PPO) from sickleweed; test: Inhibition of PPO purified from sickleweed, 4-methylcatechol substrate; format: biochemical, Falcaria vulgaris Bernh.; settings: substrate 4-methylcatechol; for Inhibition type / Ki: Lineweaver-Burk plots; for IC50: optimum conditions
# Method: as §1
# The common inhibitors of PPO were preferred to study the inhibitory effects on PPO activity. For the 4-methylcatechol substrate, sodium metabisulphite (0.005–0.1 mM), citric acid (5–60 mM), and ascorbic acid (0.005–0.04 mM) inhibitors were utilized to determine enzyme activities under optimum conditions. The half maximal inhibitory concentration (IC50), which halves the enzyme activity, was calculated using the graph of percentage residual activity (%) versus inhibitor concentration (enzyme activity in the absence of inhibitor was accepted as one hundred percent). Then, enzyme activities were studied at five substrate concentrations and three inhibitor concentrations under optimum conditions. The Lineweaver-Burk graphs were drawn by calculating 1/V and 1/[S] values with the obtained data. From these graphs, inhibition constant (Ki) values were calculated for each inhibitor, and the inhibition type was determined.
# PPO from purslane = system: PPO from purslane; set-up: method as in doi:10.1590/1678-457x.03216; settings: substrate catechol; ref [21]; cited from earlier work
# [6] = system: PPO from broccoli florets; set-up: method as in doi:10.1016/j.foodchem.2007.05.012; settings: substrate 4-methylcatechol; ref [61]; cited from earlier work
# PPO from Sarali plum [7] = system: PPO from Sarali plum; set-up: method as in doi:10.1007/s11694-024-02663-y; settings: substrate 4-methylcatechol; ref [39]; cited from earlier work
smiles,measurement,setting,value
"O=C(O)CCc1ccc(O)c(O)c1 [DHPPA, 3,4-Dihydroxyphenylpropionic acid]",Vmax,Medlar PPO,7.2 * μM/min
same,Km,Medlar PPO,1.9 mM
same,Vmax,[1],17.2 * μM/min
same,Km,[1],12.8 mM
same,Km,[2],11.4 mM
same,Vmax,[2],"14,285.71 EU·mL^−1·min^−1"
"Oc1ccccc1O [Catechol, catechol]",Vmax,Medlar PPO,88.0 * μM/min
same,Km,Medlar PPO,5.7 mM
same,Vmax,[1],55.2 * μM/min
same,Km,[1],12.4 mM
same,Km,PPO from butter lettuce,3.2 ± 0.01 mM
same,Vmax,PPO from butter lettuce,4081 ± 8 EU·mL^−1·min^−1
same,Km,[2],5 mM
same,Vmax,[2],"10,000 EU·mL^−1·min^−1"
same,Km,PPO from Sarali plum [3],1.16 ± 0.12 mM
same,Vmax,PPO from Sarali plum [3],914.14 ± 83.45 EU·mL^−1·min^−1
same,Km,PPO from Chinese parsley,31 mM
same,Vmax,PPO from Chinese parsley,2000 EU·mL^−1·min^−1
same,Km,[4],0.25 mM
"Cc1ccc(O)c(O)c1 [4-Methylcatechol, 4-methylcatechol]",Vmax,Medlar PPO,130 * μM/min
same,Km,Medlar PPO,7.5 mM
same,Vmax,[1],49.5 * μM/min
same,Km,[1],14.6 mM
same,Km,PPO from butter lettuce,1 ± 0.09 mM
same,Vmax,PPO from butter lettuce,5405 ± 4 EU·mL^−1·min^−1
same,Km,[2],2 mM
same,Vmax,[2],5000 EU·mL^−1·min^−1
same,Km,PPO from Sarali plum [3],4.75 ± 0.66 mM
same,Vmax,PPO from Sarali plum [3],2333.33 ± 288.68 EU·mL^−1·min^−1
same,Km,PPO from Chinese parsley,37.4 mM
same,Vmax,PPO from Chinese parsley,1428.57 EU·mL^−1·min^−1
same,Km,[4],0.4 mM
"O=S(O)S(=O)(=O)O [Sodium metabisulfite, sodium metabisulfite]",IC50,PPO from tea leaf,21.7 µM
same,Inhibition type,PPO from tea leaf,Noncompetitive
same,Ki,PPO from tea leaf,19.3 µM
same,Inhibition type,[5],Noncompetitive
same,Ki,[5],23.7 µM
same,IC50,[5],27 µM
"O=C(O)CC(O)(CC(=O)O)C(=O)O [Citric acid, citric acid]",Inhibition type,PPO from purslane,Uncompetitive
same,Ki,PPO from purslane,4470 µM
same,Inhibition type,[6],Noncompetitive
same,Ki,[6],74 µM
same,Inhibition type,[5],Competitive
same,Ki,[5],8370 µM
same,Ki,[5]; listed as citric acid,8730 µM
same,IC50,[5],32000 µM
"O=C1O[C@H]([C@@H](O)CO)C(O)=C1O [Ascorbic acid, ascorbic acid]",Inhibition type,PPO from purslane,Noncompetitive
same,Ki,PPO from purslane,360 µM
same,IC50,PPO from Sarali plum [7],38 ± 1 µM
same,Inhibition type,PPO from Sarali plum [7],Competitive
same,Ki,PPO from Sarali plum [7],9.5 µM
same,Inhibition type,[6],Noncompetitive
same,Ki,[6],88 µM
same,IC50,PPO from tea leaf,69.3 µM
same,Inhibition type,PPO from tea leaf,Competitive
same,Ki,PPO from tea leaf,32.7 µM
same,Inhibition type,[5],Competitive
same,Ki,[5],10.1 µM
same,IC50,[5],26 µM
